According to article PMC4773067 (PLoS ONE, 2016):
“Also recorded” adds a separate entry of the source. Each block holds one compound with its values, some of them ahead of it.

What was measured:
[1] = test system: hSR-transfected CHO-K1 cells; test: Antagonist cAMP response (coincubation with hSCT, HTRF-LANCE cAMP assay); type: cell-based, human; settings: Table 4; cAMP response with 5 nM hSCT plus analog 10^-12 to 10^-6 M, 30 min
Procedure: Detection was subsequently performed according to the manufacturer’s instructions.
(§1) All in vitro results were analyzed in quadruplicate, and the data are expressed as the means ± SEM. Significant differences were identified using Student’s t-test at p<0.05. The dose response was analyzed using GraphPad Prism 5.0 software with a variable slope (four parameters).

[2] = test system: hSR-transfected CHO-K1 cells; test: Agonist cAMP response (HTRF-LANCE cAMP assay); type: cell-based, human; settings: for Agonistic response: Table 4, cAMP response at various doses
Procedure: The cAMP responses in hSR-transfected CHO-K1 cells were detected using the HTRF-LANCE® cAMP assay kit. After 48 h of transfection, the cells were detached by nonenzymatic treatment using Versene. The cells were counted and processed according to the manufacturer’s instructions to measure the cAMP response following cell treatment with the secretin analogs. hSCT was used as a positive control. The TRF signals (340 nm excitation/665 nm emission) were detected using a VICTOR X4 spectrofluorometer (PerkinElmer), and the cAMP concentration was determined using a standard curve.
as §1

[3] = molecular target: SNAPtag-hSR (human secretin receptor) in transfected CHO-K1 cells (Homo sapiens, UniProt P47872); test: FRET competitive binding assay
[4] = molecular target: human secretin receptor (human) (UniProt P47872); test: FRET or BRET; competitive binding, dose response 10^-12 M to 10^-4 M of unlabelled peptide against 500 nM labelled hSCT on CHO-K1 cells with Lumi4-Tb-labelled SNAPtag-hSR, 4–8°C, 1 h; nonspecific signal with 100 μM unlabelled hSCT subtracted; four-parameter fit
Sequence of human secretin receptor (human) (P47872 23-440): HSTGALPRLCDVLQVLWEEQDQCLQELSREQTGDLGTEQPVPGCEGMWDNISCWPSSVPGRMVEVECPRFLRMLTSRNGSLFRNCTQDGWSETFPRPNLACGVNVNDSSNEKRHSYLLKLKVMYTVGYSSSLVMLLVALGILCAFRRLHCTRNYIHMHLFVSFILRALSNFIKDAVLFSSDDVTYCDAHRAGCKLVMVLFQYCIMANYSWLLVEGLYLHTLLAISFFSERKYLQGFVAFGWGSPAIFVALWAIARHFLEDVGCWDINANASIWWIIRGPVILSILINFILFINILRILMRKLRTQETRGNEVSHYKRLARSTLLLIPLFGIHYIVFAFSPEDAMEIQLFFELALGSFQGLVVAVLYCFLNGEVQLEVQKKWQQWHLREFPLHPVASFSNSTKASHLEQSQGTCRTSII

Sequence of SNAPtag-hSR (human secretin receptor) in transfected CHO-K1 cells (P47872 23-440): as above

Compound: CC(C)C[C@H](NC(=O)CNC(=O)[C@H](CCC(N)=O)NC(=O)[C@H](CC(C)C)NC(=O)[C@H](CC(C)C)NC(=O)[C@H](CCCNC(=N)N)NC(=O)[C@H](CCC(N)=O)NC(=O)[C@H](CC(C)C)NC(=O)[C@H](CCCNC(=N)N)NC(=O)[C@H](C)NC(=O)[C@H](CO)NC(=O)[C@H](CC(=O)O)NC(=O)[C@H](CCC(N)=O)NC(=O)[C@H](CC(C)C)NC(=O)[C@H](CCCNC(=N)N)NC(=O)[C@H](CO)NC(=O)[C@H](CC(C)C)NC(=O)[C@H](CCC(=O)O)NC(=O)[C@H](CO)NC(=O)[C@@H](NC(=O)[C@H](Cc1ccccc1)NC(=O)[C@@H](NC(=O)CNC(=O)[C@H](CC(=O)O)NC(=O)[C@H](CO)NC(=O)[C@@H](N)Cc1c[nH]cn1)[C@@H](C)O)[C@@H](C)O)C(=O)N[C@H](C(=O)O)C(C)C [Analog 15, Rat SCT]
- Antagonistic response [1]: Absent
- agonist activity at hSR, cAMP (in words) [2]: agonist
- Agonistic response [2]: Present

Compound: CC(C)C[C@H](NC(=O)CNC(=O)[C@H](CCC(N)=O)NC(=O)[C@H](CC(C)C)NC(=O)[C@H](CC(C)C)NC(=O)[C@H](CCCNC(=N)N)NC(=O)[C@H](CCC(N)=O)NC(=O)[C@H](CC(C)C)NC(=O)[C@H](CCCNC(=N)N)NC(=O)[C@H](C)NC(=O)CNC(=O)[C@H](CCC(=O)O)NC(=O)[C@H](CCCNC(=N)N)NC(=O)[C@H](CC(C)C)NC(=O)[C@H](CCCNC(=N)N)NC(=O)[C@H](CO)NC(=O)[C@H](CC(C)C)NC(=O)[C@H](CCC(=O)O)NC(=O)[C@H](CO)NC(=O)[C@@H](NC(=O)[C@H](Cc1ccccc1)NC(=O)[C@@H](NC(=O)CNC(=O)[C@H](CC(=O)O)NC(=O)[C@H](CO)NC(=O)[C@@H](N)Cc1c[nH]cn1)[C@@H](C)O)[C@@H](C)O)C(=O)N[C@H](C(=O)O)C(C)C [hSCT, human secretin, reference compound]
- Antagonistic response [1]: Absent
- Agonistic response [2]: Present

Compound: H2N-Ala-Ser-Asp-Gly-Thr-Phe-Thr-Ser-Glu-Leu-Ser-Arg-Leu-Arg-Glu-Gly-Ala-Arg-Leu-Gln-Arg-Leu-Leu-Gln-Gly-Leu-Val- COOH [Analog 2, h[Ala^1]SCT]
- Antagonistic response [1]: Absent
- Agonistic response [2]: Absent

Compound: H2N-Arg-Glu-Gly-Ala-Arg-Leu-Gln-Arg-Leu-Leu-Gln-Gly-Leu-Val- COOH [Analog 20, Ct-SCT]
- Antagonistic response [1]: Absent
- Agonistic response [2]: Absent

Compound: H2N-Cit-Ser-Asp-Gly-Thr-Phe-Thr-Ser-Glu-Leu-Ser-Arg-Leu-Arg-Glu-Gly-Ala-Arg-Leu-Gln-Arg-Leu-Leu-Gln-Gly-Leu-Val- COOH [Analog 10, h[Cit^1]SCT]
- Antagonistic response [1]: Absent
- Agonistic response [2]: Absent

Compound: H2N-His-Pro-Asp-Gly-Thr-Phe-Thr-Ser-Glu-Leu-Ser-Arg-Leu-Arg-Glu-Gly-Ala-Arg-Leu-Gln-Arg-Leu-Leu-Gln-Gly-Leu-Val- COOH [Analog 1, h[Pro^2]SCT]
- Antagonistic response [1]: Absent
- Agonistic response [2]: Absent

Compound: H2N-His-Ser-Asp-Cha-Thr-Phe-Thr-Ser-Glu-Leu-Ser-Arg-Leu-Arg-Glu-Gly-Ala-Arg-Leu-Gln-Arg-Leu-Leu-Gln-Gly-Leu-Val- COOH [Analog 7, h[Cha^4]SCT]
- Antagonistic response [1]: Absent
- Agonistic response [2]: Absent

Compound: H2N-His-Ser-Asp-D-allyl,Gly-Thr-Phe-Thr-Ser-Glu-Leu-Ser-Arg-Leu-Arg-Glu-Gly-Ala-Arg-Leu-Gln-Arg-Leu-Leu-Gln-Gly-Leu-Val- COOH [Analog 5, h[(D-allyl,Gly^4]SCT]
- Antagonistic response [1]: Absent
- Agonistic response [2]: Absent

Compound: H2N-His-Ser-Asp-Gly-Leu-Phe-Thr-Ser-Glu-Tyr-Ser-Lys-Met-Arg-Gly-Asn-Ala-Gln-Val-Gln-Lys-Phe-Ile-Gln-Asn-Leu-Met- COOH [Analog 17, Chicken SCT]
- Antagonistic response [1]: Absent
- Agonistic response [2]: Absent

Compound: H2N-His-Ser-Asp-Gly-Thr-Phe-Thr-Ser-Glu-Leu-Ser-Arg-Leu- COOH [Analog 19, Nt-SCT]
- Antagonistic response [1]: Absent
- Agonistic response [2]: Absent

Compound: H2N-His-Ser-Asp-Pro-Thr-Phe-Thr-Ser-Glu-Leu-Ser-Arg-Leu-Arg-Glu-Gly-Ala-Arg-Leu-Gln-Arg-Leu-Leu-Gln-Gly-Leu-Val- COOH [Analog 13, h[Pro^4]SCT]
- Antagonistic response [1]: Absent
- Agonistic response [2]: Absent

Compound: H2N-His-Ser-Asp-Tyr-Thr-Phe-Thr-Ser-Glu-Leu-Ser-Arg-Leu-Arg-Glu-Gly-Ala-Arg-Leu-Gln-Arg-Leu-Leu-Gln-Gly-Leu-Val- COOH [Analog 14, h[Tyr^4]SCT]
- Antagonistic response [1]: Absent
- Agonistic response [2]: Absent

Compound: H2N-His-Ser-Asp-p-Cl,D-Phe^4-Thr-Phe-Thr-Ser-Glu-Leu-Ser-Arg-Leu-Arg-Glu-Gly-Ala-Arg-Leu-Gln-Arg-Leu-Leu-Gln-Gly-Leu-Val- COOH [Analog 4, h[(p-Cl,D-Phe^4]SCT]
- Antagonistic response [1]: Absent
- Agonistic response [2]: Absent

Compound: H2N-His-Ser-D-Asp-Gly-Thr-Phe-Thr-Ser-Glu-Leu-Ser-Arg-Leu-Arg-Glu-Gly-Ala-Arg-Leu-Gln-Arg-Leu-Leu-Gln-Gly-Leu-Val- COOH [Analog 8, h[D-Asp^3]SCT]
- Antagonistic response [1]: Absent
- Agonistic response [2]: Absent

Compound: H2N-His-Ser-pCO2HPhe-Gly-Thr-Phe-Thr-Ser-Glu-Leu-Ser-Arg-Leu-Arg-Glu-Gly-Ala-Arg-Leu-Gln-Arg-Leu-Leu-Gln-Gly-Leu-Val- COOH [Analog 11, h[pCO2H-Phe^3]SCT]
- Antagonistic response [1]: Absent
- Agonistic response [2]: Absent

Compound: H2N-His-Val-Asp-Gly-Arg-Phe-Thr-Ser-Glu-Phe-Ser-Arg-Ala-Arg-Gly-Ser-Ala-Ala-Ile-Arg-Lys-Ile-Ile-Asn-Ser-Ala-Leu-Ala- COOH [Analog 16, Xenopus SCT]
- Antagonistic response [1]: Absent
- Agonistic response [2]: Absent

Compound: H2N-His-Val-Asp-Gly-Leu-Phe-Thr-Ser-Glu-Leu-Ser-Lys-Leu-Arg-Gly-Ser-Ala-Val-Ala-Arg-Ser-Phe-Thr-Asn-Ala-Val-Leu- COOH [Analog 18, Coelacanths SCT]
- Antagonistic response [1]: Absent
- Agonistic response [2]: Absent

Compound: H2N-Leu-Ser-Asp-Gly-Thr-Phe-Thr-Ser-Glu-Leu-Ser-Arg-Leu-Arg-Glu-Gly-Ala-Arg-Leu-Gln-Arg-Leu-Leu-Gln-Gly-Leu-Val- COOH [Analog 3, h[Leu^1]SCT]
- Antagonistic response [1]: Absent
- Agonistic response [2]: Absent

Compound: H2N-Orn-Ser-Asp-Gly-Thr-Phe-Thr-Ser-Glu-Leu-Ser-Arg-Leu-Arg-Glu-Gly-Ala-Arg-Leu-Gln-Arg-Leu-Leu-Gln-Gly-Leu-Val- COOH [Analog 12, h[Orn^1]SCT]
- Antagonistic response [1]: Absent
- Agonistic response [2]: Absent

Compound: H2N-Phe-Thr-Ser-Glu-Leu-Ser-Arg-Leu-Arg-Glu-Gly-Ala-Arg-Leu-Gln-Arg-Leu-Leu-Gln-Gly-Leu-Val- COOH [Analog 6, hSCT(6–27)]
- Antagonistic response [1]: Absent
- Agonistic response [2]: Absent

Compound: H2N-Tic-Ser-Asp-Gly-Thr-Phe-Thr-Ser-Glu-Leu-Ser-Arg-Leu-Arg-Glu-Gly-Ala-Arg-Leu-Gln-Arg-Leu-Leu-Gln-Gly-Leu-Val- COOH [Analog 9, h[Tic^1]SCT]
- Antagonistic response [1]: Absent
- Agonistic response [2]: Absent

- in vitro binding to hSR (in words) [3]: only at high concentrations
Compound: human pituitary adenylate cyclase-activating polypeptide [hPACAP, reference compound]
- agonist activity at hSR, cAMP (in words) [2]: could also activate hSR to produce cAMP; also recorded: only at high concentrations

- IC50 [4]: 1.63 nM
Compound: human secretin (peptide)

Compound: human vasoactive peptide [hVIP, reference compound]
- agonist activity at hSR, cAMP (in words) [2]: could also activate hSR to produce cAMP; also recorded: only at high concentrations
